Key:
[1] = UV-Visible absorption spectra of the dyes; type: physicochemical
Description: (§1) UV-Visible absorption spectra were recorded on Shimadzu UV-2401PC Spectrophotometer, while fluorescence measurements were performed Spex-Fluorlog2 Fluorometer (Instrument S.A. Inc.).
(§2) The spectral properties of the dyes of the previous Examples were measured. […] Other materials absorbed at the […] krypton laser wavelength.

[2] = Fluorescence measurements (excitation/emission) of the dyes; type: physicochemical
Description: as §1, §2

Row | δmax (absorption maximum) ([1]; CH2Cl2) [nm] | δem (emission wavelength) ([2]; CH2Cl2) [nm] | Compound | also measured
1 |  |  | CC1(C)C2=[N+](CCCCCC(=O)Nc3cc(cc(C(=O)O)c3)NC(=O)CCCCCN3/C(=C/C=C/C=C/2)C(C)(C)c2cc(S(=O)(=O)O)ccc23)c2ccc(S(=O)(=O)[O-])cc21 [Dye 16, Bridged Pentamethine Indoleninium Cyanine Dye] | e (extinction coefficient at δmax) ([1]; PBS buffer): 250,000; δmax (absorption maximum) ([1]; PBS buffer): 648 nm; δem (emission wavelength) ([2]; PBS): 674 nm; δex (excitation wavelength) ([2]; PBS): 648 nm
2 |  |  | CC1(C)C2=[N+](CCCCCC(=O)Nc3cc(cc(C(=O)O)c3)NC(=O)CCCCCN3/C(=C/C=C/C=C/C=C/2)C(C)(C)c2cc(S(=O)(=O)O)ccc23)c2ccc(S(=O)(=O)[O-])cc21 [Dye 17, Bridged Heptamethine Indoleninium Cyanine Dye] | δmax (absorption maximum) ([1]; PBS buffer): 748 nm; δem (emission wavelength) ([2]; PBS): 780 nm; δex (excitation wavelength) ([2]; PBS): 748 nm
3 | 656 | 674 | CC1(C)C2=[N+](CCCCCCCCCCCCN3/C(=C/C=C/C=C/2)C(C)(C)c2ccccc23)c2ccccc21.[Br-] [Dye 19] | 
4 | 648 |  | CC1(C)C2=[N+](CCCCCCCCCCCCN3/C(=C/C4=C([O-])C(=C/2)/C4=O)C(C)(C)c2ccccc23)c2ccccc21 [Dye 20, Dodecanyl Bridged Indoleninium Squaraine Dye] | 
5 | 760 | 790 | CC1(C)C2=[N+](CCCCCCCCCCCCN3/C(=C/C=C/C=C/C=C/2)C(C)(C)c2ccccc23)c2ccccc21.[Br-] [Dye 21, Dodecanyl Bridged Indoleninium Heptamethine Cyanine Dye] | 
6 | 696 | 716 | CC1(C)C2=[N+](CCCCCCCCCCCCN3/C(=C/C=C/C=C/2)C(C)(C)c2c3ccc3ccccc23)c2ccc3ccccc3c21.[Br-] [Dye 23, Dodecanyl Bridged Benzindoleninium Pentamethine Cyanine dye] | 
7 | 671 | 681 | CC1(C)C2=[N+](CCCCCCCCCCCCN3/C(=C/C4=C([O-])C(=C/2)/C4=O)C(C)(C)c2c3ccc3ccccc23)c2ccc3ccccc3c21 [Dye 24, Dodecanyl Bridged Benzindoleninium Squaraine Dye] | 
8 | 800 | 820 | CC1(C)C2=[N+](CCCCCCCCCCCCN3/C(=C/C=C/C=C/C=C/2)C(C)(C)c2c3ccc3ccccc23)c2ccc3ccccc3c21 [Dye 25, Dodecanyl Bridged Benzindoleninium Heptamethine Dye] | 
9 |  |  | CC1(C)C2=[N+](CCCCCC(=O)Nc3cc(cc(C(=O)O)c3)NC(=O)CCCCCN3/C(=C/C=C/2)C(C)(C)c2cc(S(=O)(=O)[O-])ccc23)c2ccc(S(=O)(=O)O)cc21 [Dye 27, Bridged Trimethine Indolenium Cyanine Dye] | δmax (absorption maximum) ([1]; solvent not stated): 563 nm
10 |  |  | CC1(C)C2=CC3=C(S)/C(=C\C4=[N+](CCCCCC(=O)Nc5cc(cc(C(=O)O)c5)NC(=O)CCCCCN2c2ccc(S(=O)(=O)O)cc21)c1ccc(S(=O)(=O)[O-])cc1C4(C)C)C3=S [Dye 28, Bridged Thiosquarylium Dye] | δmax (absorption maximum) ([1]; solvent not stated): 649 nm

— US6403807B1, “Bridged fluorescent dyes, their preparation and their use in assays” (SurroMed, Inc., priority 1999, dated 2002)
